Results reported in PubChem BioAssay AID1259407 (Chemical Carcinogenesis Research Information System (CCRIS), 2018).
Calls of active or inactive are those of the source. No rule for the calls is given here.

Tested on: CCRIS mutagenicity, Ames/micronucleus/aberration tests
Experiment: CCRIS mutagenicity studies
Conditions: Test System: AMES SALMONELLA TYPHIMURIUM

Measured: mutagenic call

C1O[C@@H]1[C@@H]1CO1
inactive: Strain/Indicator: TA98, Metabolic Activation: HAMSTER, LIVER, S-9, AROCLOR 1254, Method: PREINCUBATION inactive; negative | Strain/Indicator: TA98, Metabolic Activation: HAMSTER, LIVER, S-9, AROCLOR 1254, Method: STANDARD PLATE inactive; negative | Strain/Indicator: TA98, Metabolic Activation: HAMSTER, LIVER, S-9, Method: PREINCUBATION inactive; negative | Strain/Indicator: TA98, Metabolic Activation: HAMSTER, LIVER, S-9, Method: STANDARD PLATE inactive; negative | Strain/Indicator: TA98, Metabolic Activation: MOUSE, LIVER, S-9, AROCLOR 1254, Method: PREINCUBATION inactive; negative | Strain/Indicator: TA98, Metabolic Activation: MOUSE, LIVER, S-9, AROCLOR 1254, Method: STANDARD PLATE inactive; negative | Strain/Indicator: TA98, Metabolic Activation: MOUSE, LIVER, S-9, Method: PREINCUBATION inactive; negative | Strain/Indicator: TA98, Metabolic Activation: MOUSE, LIVER, S-9, Method: STANDARD PLATE inactive; negative | Strain/Indicator: TA98, Metabolic Activation: NONE, Method: PREINCUBATION inactive; negative | Strain/Indicator: TA98, Metabolic Activation: NONE, Method: STANDARD PLATE inactive; negative | Strain/Indicator: TA98, Metabolic Activation: RAT, LIVER, S-9, AROCLOR 1254, Method: PREINCUBATION inactive; negative | Strain/Indicator: TA98, Metabolic Activation: RAT, LIVER, S-9, Method: PREINCUBATION inactive; negative | Strain/Indicator: TA98, Metabolic Activation: RAT, LIVER, S-9, Method: STANDARD PLATE inactive; negative | Strain/Indicator: TA100, Metabolic Activation: HAMSTER, LIVER, S-9, AROCLOR 1254, Method: PREINCUBATION inactive; negative | Strain/Indicator: TA100, Metabolic Activation: HAMSTER, LIVER, S-9, Method: PREINCUBATION inactive; negative | Strain/Indicator: TA100, Metabolic Activation: MOUSE, LIVER, S-9, AROCLOR 1254, Method: PREINCUBATION inactive; negative | Strain/Indicator: TA100, Metabolic Activation: MOUSE, LIVER, S-9, Method: PREINCUBATION inactive; negative | Strain/Indicator: TA100, Metabolic Activation: NONE, Method: PREINCUBATION inactive; negative | Strain/Indicator: TA100, Metabolic Activation: RAT, LIVER, S-9, AROCLOR 1254, Method: PREINCUBATION inactive; negative | Strain/Indicator: TA100, Metabolic Activation: RAT, LIVER, S-9, Method: PREINCUBATION inactive; negative
active: Strain/Indicator: TA100, Metabolic Activation: HAMSTER, LIVER, S-9, AROCLOR 1254, Method: STANDARD PLATE active; positive | Strain/Indicator: TA100, Metabolic Activation: HAMSTER, LIVER, S-9, Method: STANDARD PLATE active; positive | Strain/Indicator: TA100, Metabolic Activation: MOUSE, LIVER, S-9, AROCLOR 1254, Method: STANDARD PLATE active; positive | Strain/Indicator: TA100, Metabolic Activation: NONE, Method: STANDARD PLATE active; positive | Strain/Indicator: TA100, Metabolic Activation: RAT, LIVER, S-9, Method: STANDARD PLATE active; positive | Strain/Indicator: TA1535, Metabolic Activation: HAMSTER, LIVER, S-9, AROCLOR 1254, Method: PREINCUBATION active; positive | Strain/Indicator: TA1535, Metabolic Activation: HAMSTER, LIVER, S-9, AROCLOR 1254, Method: STANDARD PLATE active; positive | Strain/Indicator: TA1535, Metabolic Activation: HAMSTER, LIVER, S-9, Method: PREINCUBATION active; positive | Strain/Indicator: TA1535, Metabolic Activation: HAMSTER, LIVER, S-9, Method: STANDARD PLATE active; positive | Strain/Indicator: TA1535, Metabolic Activation: MOUSE, LIVER, S-9, AROCLOR 1254, Method: PREINCUBATION active; positive | Strain/Indicator: TA1535, Metabolic Activation: MOUSE, LIVER, S-9, AROCLOR 1254, Method: STANDARD PLATE active; positive | Strain/Indicator: TA1535, Metabolic Activation: MOUSE, LIVER, S-9, Method: PREINCUBATION active; positive | Strain/Indicator: TA1535, Metabolic Activation: MOUSE, LIVER, S-9, Method: STANDARD PLATE active; positive | Strain/Indicator: TA1535, Metabolic Activation: NONE, Method: PREINCUBATION active; positive | Strain/Indicator: TA1535, Metabolic Activation: NONE, Method: STANDARD PLATE active; positive | Strain/Indicator: TA1535, Metabolic Activation: RAT, LIVER, S-9, AROCLOR 1254, Method: PREINCUBATION active; positive
